We go through seven molecules from BindingDB's records for patent US12187742 (Xrad Therapeutics, 2025).

In the experiment the target is DNA-dependent protein kinase catalytic subunit (Homo sapiens, UniProt P78527). Nature of the experiment: DNA-PK Enzyme-Linked Immunosorbent Assay. The procedure:
On day one, coat 96-well plate (ThermoFisher. Cat #: 442404) with GST-p53 (1-101) peptide (purified by Pharmaron, BCS department) by diluting 3 μg of GST-p53 each well with 0.1 M Na2CO3/NaHCO3, pH 9.6. Incubate the plate overnight at 4° C. The second day, remove coating buffer, wash 2× with PBST (1×PBS containing 0.1% Tween-20). Then add DNA-PK enzyme solution (Invitrogen, #PR9107A; the final DNA-PK concentration is 0.1 μg/mL), series dilution compounds (the final top concentration is 100 nM, 3 fold series dilution, with total 10 doses) and ATP solution (the final ATP concentration is 20 μM) to the 96-well plate. Incubate the plate at 25° C. for 1 hour. Then wash 3× with PBST (1×PBS containing 0.1% Tween-20). Block the plate with PBST+ 1% BSA at 4° C. overnight. The third day, wash 4× with PBST (1×PBS containing 0.1% Tween-20). Then add Phospho-p53 primary antibody (cell signaling Technology, #9286, Phospho-p53 (Ser15) (16G8) Mouse mAb) (1/1000) to each well. Seal with plate and incubate the plate for 1 h at 37° C. Wash 4× with PBST (1×PBS containing 0.1% Tween-20), add 100 μL of HRP-linked secondary antibody (Cell signaling Technology, #7076, Anti-mouse IgG, HRP-linked Antibody) (1/1000) to each well. Seal with tape and incubate the plate for 30 min at 37° C. Wash 4× with PBST (1×PBS containing 0.1% Tween-20), add 100 μL of TMB (Cell signaling Technology, #7004) substrate to each well. Seal with tape and incubate the plate for 10 min at 37° C. Then add 100 μL of Stop solution (Cell signaling Technology, #7002) to each well. Read the plate at 450 nm to detect absorption.

Molecules are shown by their SMILES. Where only a bound is given, the exact number is not on record here.

Sequence of DNA-dependent protein kinase catalytic subunit (P78527 whole entry): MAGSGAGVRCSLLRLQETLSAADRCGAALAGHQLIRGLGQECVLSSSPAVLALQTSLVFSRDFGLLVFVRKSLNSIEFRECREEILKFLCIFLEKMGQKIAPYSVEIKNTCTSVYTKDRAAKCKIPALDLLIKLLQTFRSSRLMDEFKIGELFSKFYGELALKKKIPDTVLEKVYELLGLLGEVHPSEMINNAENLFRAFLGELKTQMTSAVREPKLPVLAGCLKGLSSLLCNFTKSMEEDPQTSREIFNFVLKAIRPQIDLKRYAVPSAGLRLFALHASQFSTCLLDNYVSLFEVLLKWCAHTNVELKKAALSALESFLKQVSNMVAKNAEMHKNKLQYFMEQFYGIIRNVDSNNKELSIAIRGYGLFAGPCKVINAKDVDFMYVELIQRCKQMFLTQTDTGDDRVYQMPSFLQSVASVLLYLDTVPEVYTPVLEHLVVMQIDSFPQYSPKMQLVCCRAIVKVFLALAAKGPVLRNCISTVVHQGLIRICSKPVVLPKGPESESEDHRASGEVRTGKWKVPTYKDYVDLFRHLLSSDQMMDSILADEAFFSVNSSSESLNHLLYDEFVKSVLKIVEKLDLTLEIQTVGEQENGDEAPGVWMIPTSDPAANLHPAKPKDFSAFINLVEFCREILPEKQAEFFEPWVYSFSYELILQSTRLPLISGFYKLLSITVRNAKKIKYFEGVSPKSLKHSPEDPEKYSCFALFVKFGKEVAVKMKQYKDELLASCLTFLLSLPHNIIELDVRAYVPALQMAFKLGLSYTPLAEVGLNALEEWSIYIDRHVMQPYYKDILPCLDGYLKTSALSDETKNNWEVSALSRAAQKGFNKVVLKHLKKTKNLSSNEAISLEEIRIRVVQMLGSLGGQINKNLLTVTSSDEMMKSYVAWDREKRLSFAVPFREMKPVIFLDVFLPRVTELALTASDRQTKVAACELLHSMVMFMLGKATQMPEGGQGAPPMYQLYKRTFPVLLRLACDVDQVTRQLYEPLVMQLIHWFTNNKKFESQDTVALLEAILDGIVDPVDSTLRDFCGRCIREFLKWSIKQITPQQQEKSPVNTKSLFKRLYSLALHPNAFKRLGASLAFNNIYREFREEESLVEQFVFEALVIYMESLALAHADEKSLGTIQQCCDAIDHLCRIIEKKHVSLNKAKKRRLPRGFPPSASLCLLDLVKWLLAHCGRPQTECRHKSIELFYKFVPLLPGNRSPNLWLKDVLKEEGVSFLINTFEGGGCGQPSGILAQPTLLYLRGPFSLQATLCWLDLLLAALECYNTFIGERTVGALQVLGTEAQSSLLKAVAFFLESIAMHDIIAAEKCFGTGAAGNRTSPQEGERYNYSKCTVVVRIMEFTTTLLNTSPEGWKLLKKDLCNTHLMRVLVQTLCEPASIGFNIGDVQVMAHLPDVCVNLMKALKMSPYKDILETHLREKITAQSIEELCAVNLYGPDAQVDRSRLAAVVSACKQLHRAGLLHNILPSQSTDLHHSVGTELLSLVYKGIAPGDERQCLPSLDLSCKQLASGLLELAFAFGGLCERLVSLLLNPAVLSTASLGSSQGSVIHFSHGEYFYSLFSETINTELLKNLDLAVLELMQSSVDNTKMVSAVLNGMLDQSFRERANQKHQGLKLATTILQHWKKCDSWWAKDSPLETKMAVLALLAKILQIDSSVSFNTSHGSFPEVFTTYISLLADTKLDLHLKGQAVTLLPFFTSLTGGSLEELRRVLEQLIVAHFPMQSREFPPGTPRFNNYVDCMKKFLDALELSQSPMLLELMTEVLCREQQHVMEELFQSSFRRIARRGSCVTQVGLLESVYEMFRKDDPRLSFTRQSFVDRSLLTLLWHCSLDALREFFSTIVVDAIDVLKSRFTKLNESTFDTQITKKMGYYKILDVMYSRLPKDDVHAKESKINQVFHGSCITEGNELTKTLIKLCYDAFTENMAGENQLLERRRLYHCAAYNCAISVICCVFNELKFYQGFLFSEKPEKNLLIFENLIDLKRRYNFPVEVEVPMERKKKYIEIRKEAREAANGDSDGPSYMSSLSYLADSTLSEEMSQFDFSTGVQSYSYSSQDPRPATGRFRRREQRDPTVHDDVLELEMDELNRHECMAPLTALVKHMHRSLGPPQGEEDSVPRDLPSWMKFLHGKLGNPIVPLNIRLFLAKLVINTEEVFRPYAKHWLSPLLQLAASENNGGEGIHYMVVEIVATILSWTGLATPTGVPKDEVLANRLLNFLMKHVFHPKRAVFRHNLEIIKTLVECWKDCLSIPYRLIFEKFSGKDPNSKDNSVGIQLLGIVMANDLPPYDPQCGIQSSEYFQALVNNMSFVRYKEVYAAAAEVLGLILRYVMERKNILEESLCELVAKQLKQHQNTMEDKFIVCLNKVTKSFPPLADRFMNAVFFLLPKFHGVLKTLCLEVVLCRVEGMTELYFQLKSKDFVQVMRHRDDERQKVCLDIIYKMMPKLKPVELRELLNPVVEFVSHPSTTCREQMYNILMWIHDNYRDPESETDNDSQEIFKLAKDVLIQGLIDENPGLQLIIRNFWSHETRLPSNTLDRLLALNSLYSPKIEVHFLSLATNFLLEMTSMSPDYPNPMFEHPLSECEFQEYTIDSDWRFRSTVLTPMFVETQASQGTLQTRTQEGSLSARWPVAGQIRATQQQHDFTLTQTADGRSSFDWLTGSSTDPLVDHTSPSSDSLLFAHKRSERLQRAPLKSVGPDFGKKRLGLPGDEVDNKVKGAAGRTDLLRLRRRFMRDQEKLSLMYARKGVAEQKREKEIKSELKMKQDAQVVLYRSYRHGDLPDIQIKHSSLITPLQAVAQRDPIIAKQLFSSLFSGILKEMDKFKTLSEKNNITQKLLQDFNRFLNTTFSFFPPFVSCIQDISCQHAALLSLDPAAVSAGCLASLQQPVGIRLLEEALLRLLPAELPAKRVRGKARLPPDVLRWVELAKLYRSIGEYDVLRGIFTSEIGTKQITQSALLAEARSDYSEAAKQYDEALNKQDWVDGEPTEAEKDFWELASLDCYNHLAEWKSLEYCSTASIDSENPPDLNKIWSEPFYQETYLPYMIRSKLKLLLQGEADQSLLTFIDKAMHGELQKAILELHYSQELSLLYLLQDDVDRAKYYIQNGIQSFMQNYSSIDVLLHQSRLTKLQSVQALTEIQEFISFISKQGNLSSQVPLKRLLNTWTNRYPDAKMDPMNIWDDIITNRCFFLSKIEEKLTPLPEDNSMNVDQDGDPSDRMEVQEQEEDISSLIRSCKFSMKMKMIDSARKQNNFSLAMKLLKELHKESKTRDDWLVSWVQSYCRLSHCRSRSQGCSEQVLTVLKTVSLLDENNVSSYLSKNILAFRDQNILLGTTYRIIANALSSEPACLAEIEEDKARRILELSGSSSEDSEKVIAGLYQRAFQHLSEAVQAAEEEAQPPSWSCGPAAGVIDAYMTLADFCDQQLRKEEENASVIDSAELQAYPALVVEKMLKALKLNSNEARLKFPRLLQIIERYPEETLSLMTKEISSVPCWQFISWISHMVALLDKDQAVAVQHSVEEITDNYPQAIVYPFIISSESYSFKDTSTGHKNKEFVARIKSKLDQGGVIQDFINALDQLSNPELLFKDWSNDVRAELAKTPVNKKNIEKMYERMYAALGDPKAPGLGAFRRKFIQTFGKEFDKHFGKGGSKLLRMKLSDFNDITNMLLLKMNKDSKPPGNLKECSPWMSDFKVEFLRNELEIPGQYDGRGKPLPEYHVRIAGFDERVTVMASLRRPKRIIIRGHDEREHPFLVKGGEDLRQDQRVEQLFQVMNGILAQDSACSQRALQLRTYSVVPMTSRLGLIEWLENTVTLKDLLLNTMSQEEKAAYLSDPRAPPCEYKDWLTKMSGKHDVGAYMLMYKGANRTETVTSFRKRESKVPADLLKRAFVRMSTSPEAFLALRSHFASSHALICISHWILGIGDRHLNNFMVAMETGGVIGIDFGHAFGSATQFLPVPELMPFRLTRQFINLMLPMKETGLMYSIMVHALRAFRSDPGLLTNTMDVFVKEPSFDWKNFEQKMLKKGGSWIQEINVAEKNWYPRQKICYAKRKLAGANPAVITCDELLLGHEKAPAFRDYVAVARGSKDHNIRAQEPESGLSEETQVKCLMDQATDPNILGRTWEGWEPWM

Molecule `COc1ncc(-c2ccc3ncc4c(c3c2)C2(CC2)C(=O)N4C)cc1NS(=O)(=O)c1cccc(C(C)O)c1` (configuration not stated) [US12187742, Example 18] yielded an IC50 below 0.5 nM.

As to `CN1C(=O)C2(CC2)c2c1cnc1ccc(-c3cnc(OCCCN4CCCC4)c(NS(=O)(=O)C4CC4)c3)cc21` [US12187742, Example 60], the IC50 is below 0.5 nM.

On to `CN(C)CCCOc1ncc(-c2ccc3ncc4c(c3c2)C2(CC2)C(=O)N4C)cc1NS(=O)(=O)c1cccnc1` [US12187742, Example 85], for which the IC50 was below 0.5 nM.

On to `CN(C)CCCOc1ncc(-c2ccc3ncc4c(c3c2)C2(CC2)C(=O)N4C)cc1NS(=O)(=O)c1ccc(C(F)(F)F)cc1` [US12187742, Example 108], for which the IC50 is below 0.5 nM.

On to `CN(C)CCCOc1ncc(-c2ccc3ncc4c(c3c2)C2(CC2)C(=O)N4C)cc1NS(=O)(=O)c1cccs1` [US12187742, Example 120], for which the IC50 was below 0.5 nM.

The molecule `CN1CC=C(c2ncc(-c3ccc4ncc5c(c4c3)C3(CCC3)C(=O)N5C)cc2NS(C)(=O)=O)CC1` [US12187742, Example 276] gave an IC50 below 0.5 nM.

Turning to `CC(C)NCCOc1ncc(-c2ccc3ncc4c(c3c2F)C2(CCC2)C(=O)N4C)cc1NS(C)(=O)=O` [US12187742, Example 556], the 50% inhibitory concentration (IC50) is below 0.5 nM.

The IC50 is the concentration that gives 50% inhibition. Low readings indicate higher potency, high ones lower potency.
